Test results: ChEMBL document CHEMBL5154722, “Identification of new potent anticancer derivatives through simplifying the core structure and modification on their 14- hydroxyl group from oridonin” (Eur J Med Chem, 2022)
Calls of active or inactive are those of the source. No cut-off for these calls is given here.

Legend:
MDA-MB-231 = experiment: Antiproliferative activity against human MDA-MB-231 cells assessed as reduction in cell viability incubated for 72 hrs by MTT assay; assay type: functional, cell-based; details: MDA-MB-231, 72 h
H22 [1] = experiment: Antitumor activity against mouse H22 cells allografted in ICR mouse assessed as reduction in tumor volume at 20 mg/kg, iv administered once a day for 21 days after 7 days of tumor implantation measured every two days; assay type: functional, organism-based; details: time 21.0 day
K562 [2] = experiment: Induction of apoptosis in human K562 cells assessed as increase in caspase-3 level measured after 48 hrs by Western blot analysis; assay type: functional, cell-based; details: dose 25-100 nM, DDE = dose-dependent effect
[3] = Toxicity in ICR mouse allografted with mouse H22 cells assessed as effect on kidney morphology at 10 to 20 mg/kg, iv administered once a day for 21 days after 7 days of tumor implantation by H and E staining method; assay type: organism-based; details: in vivo, 504 h, dose 10-20 mg/kg, time 21 day
[4] = Toxicity in ICR mouse allografted with mouse H22 cells assessed as effect on lung morphology at 10 to 20 mg/kg, iv administered once a day for 21 days after 7 days of tumor implantation by H and E staining method; assay type: organism-based; details: in vivo, 504 h, dose 10-20 mg/kg, time 21 day
[5] = Toxicity in ICR mouse allografted with mouse H22 cells assessed as effect on heart morphology at 10 to 20 mg/kg, iv administered once a day for 21 days after 7 days of tumor implantation by H and E staining method; assay type: organism-based; details: in vivo, 504 h, dose 10-20 mg/kg, time 21 day
K562 [6] = experiment: Induction of apoptosis in human K562 cells assessed as late apoptotic cells at 100 nM measured after 48 hrs by Annexin V-FITC/PI staining based flow cytometry method (reference value: 3.53%); assay type: functional
[7] = Cytotoxicity against human L02 cells assessed as reduction in cell viability incubated for 72 hrs by MTT assay; assay type: toxicity, cell-based
[8] = Toxicity in ICR mouse allografted with mouse H22 cells assessed as effect on spleen morphology at 10 to 20 mg/kg, iv administered once a day for 21 days after 7 days of tumor implantation by H and E staining method; assay type: organism-based; details: in vivo, 504 h, dose 10-20 mg/kg, time 21 day
K562 [9] = experiment: Induction of apoptosis in human K562 cells assessed as viable cells at 50 nM measured after 48 hrs by Annexin V-FITC/PI staining based flow cytometry method (reference value: 94.41%); assay type: functional; details: read-out: Activity
H22 [10] = experiment: Antiproliferative activity against mouse H22 cells assessed as reduction in cell viability incubated for 72 hrs by MTT assay; assay type: functional, cell-based; details: H22, 72 h
K562 [11] = experiment: Induction of apoptosis in human K562 cells assessed as necrotic cells at 25 nM measured after 48 hrs by Annexin V-FITC/PI staining based flow cytometry method (reference value: 0.44%); assay type: functional
K562 [12] = experiment: Induction of apoptosis in human K562 cells assessed as increase in Bax/Bcl-2 ratio at 25 to 100 nM measured after 48 hrs by Western blot analysis; assay type: functional, cell-based; details: dose 25-100 nM
K562 [13] = experiment: Inhibition of MAPK signaling pathway in human K562 cells assessed as reduction in Raf level measured after 48 hrs by Western blot analysis; assay type: cell-based; details: dose 25-100 nM, DDE = dose-dependent effect
K562 [14] = experiment: Induction of cell cycle arrest in human K562 cells assessed as accumulation of cells at G1 phase at 100 nM measured after 48 hrs by propidium iodide staining-based flow cytometric analysis (reference value: 47.40%); assay type: functional
SMMC-7721 = experiment: Antiproliferative activity against human […] cells assessed as reduction in cell viability incubated for 72 hrs by MTT assay; assay type: functional, cell-based; details: SMMC-7721, 72 h
[15] = Selectivity index, ratio of IC50 for human L02 cells to IC50 for human SMMC-7721 cells; assay type: toxicity; details: L02 cells and SMMC-7721 cells, read-out: Ratio IC50
MGC-803 = experiment: Antiproliferative activity against human MGC-803 cells assessed as reduction in cell viability incubated for 72 hrs by MTT assay; assay type: functional, cell-based; details: MGC-803, 72 h
K562 [16] = experiment: Induction of apoptosis in human K562 cells assessed as early apoptotic cells at 50 nM measured after 48 hrs by Annexin V-FITC/PI staining based flow cytometry method (reference value: 1.62%); assay type: functional
K562 [17] = experiment: Induction of cell cycle arrest in human K562 cells assessed as accumulation of cells at G1 phase at 25 nM measured after 48 hrs by propidium iodide staining-based flow cytometric analysis (reference value: 47.40%); assay type: functional
K562 [18] = experiment: Induction of apoptosis in human K562 cells assessed as early apoptotic cells at 100 nM measured after 48 hrs by Annexin V-FITC/PI staining based flow cytometry method (reference value: 1.62%); assay type: functional
K562 [19] = experiment: Induction of apoptosis in human K562 cells assessed as viable cells at 100 nM measured after 48 hrs by Annexin V-FITC/PI staining based flow cytometry method (reference value: 94.41%); assay type: functional; details: read-out: Activity
K562 [20] = experiment: Induction of apoptosis in human K562 cells assessed as late apoptotic cells at 50 nM measured after 48 hrs by Annexin V-FITC/PI staining based flow cytometry method (reference value: 3.53%); assay type: functional
MCF7 = experiment: Antiproliferative activity against human MCF7 cells assessed as reduction in cell viability incubated for 72 hrs by MTT assay; assay type: functional, cell-based; details: MCF7, 72 h
K562 [21] = experiment: Induction of cell cycle arrest in human K562 cells assessed as accumulation of cells at G1 phase at 50 nM measured after 48 hrs by propidium iodide staining-based flow cytometric analysis (reference value: 47.40%); assay type: functional
SW480 = experiment: Antiproliferative activity against human SW480 cells assessed as reduction in cell viability incubated for 72 hrs by MTT assay; assay type: functional, cell-based; details: SW480, 72 h
[22] = Toxicity in ICR mouse allografted with mouse H22 cells assessed as change in body weight at 10 to 20 mg/kg, iv administered once a day for 21 days after 7 days of tumor implantation measured every two days; assay type: organism-based; details: in vivo, 504 h, dose 10-20 mg/kg, time 21 day
K562 [23] = experiment: Induction of cell cycle arrest in human K562 cells assessed as accumulation of cells at S phase at 100 nM measured after 48 hrs by propidium iodide staining-based flow cytometric analysis (reference value: 37.29%); assay type: functional
K562 [24] = experiment: Induction of cell cycle arrest in human K562 cells assessed as accumulation of cells at G2 phase at 100 nM measured after 48 hrs by propidium iodide staining-based flow cytometric analysis (reference value: 15.30%); assay type: functional
K562 [25] = experiment: Induction of cell cycle arrest in human K562 cells assessed as accumulation of cells at G2 phase at 50 nM measured after 48 hrs by propidium iodide staining-based flow cytometric analysis (reference value: 15.30%); assay type: functional
[26] = Antiproliferative activity against human U-87 MG cells assessed as reduction in cell viability incubated for 72 hrs by MTT assay; assay type: functional, cell-based, U-87MG ATCC
H22 [27] = experiment: Antitumor activity against mouse H22 cells allografted in ICR mouse assessed as reduction in tumor weight at 20 mg/kg, iv administered once a day for 21 days after 7 days of tumor implantation; assay type: functional; parameters: scale not given: the % may be the effect or the level left; details: time 21 day
K562 [28] = experiment: Induction of apoptosis in human K562 cells assessed as decrease in Bcl-2 level at 25 to 100 nM measured after 48 hrs by Western blot analysis; assay type: functional, cell-based; details: dose 25-100 nM
K562 [29] = experiment: Induction of apoptosis in human K562 cells assessed as increase in caspase-9 level measured after 48 hrs by Western blot analysis; assay type: functional, cell-based; details: dose 25-100 nM, DDE = dose-dependent effect

IC50 (MDA-MB-231): 420 nM
IC50 (SMMC-7721): 450 nM
IC50 (MGC-803): 610 nM
IC50 (MCF7): 700 nM
IC50 (SW480): 1030 nM
SMILES: C=C1C(=O)[C@]23[C@H](OC(=O)/C=C/c4ccncc4)[C@H]1CC[C@H]2[C@]12CCCC(C)(C)[C@H]1[C@H](O)[C@@]3(O)OC2
Activity (H22 [1]): Active
Activity (K562 [2]): Dde
Activity [3]: Non-Toxic
Activity [4]: Non-Toxic
Activity [5]: Non-Toxic
Activity (K562 [6]): 20.92%
IC50 at 72 h [7]: 3180 nM
Activity [8]: Non-Toxic
viability at 0.05 µM (K562 [9]): 66.7%
IC50 (H22 [10]): 230 nM
Activity (K562 [11]): 0.05%
Activity (K562 [12]): Active
Activity (K562 [13]): Dde
Activity (K562 [14]): 33.85%
selectivity ratio [15]: 7.12
Activity (K562 [16]): 13.97%
Activity (K562 [17]): 39.5%
Activity (K562 [18]): 42.81%
viability at 0.1 µM (K562 [19]): 33%
Activity (K562 [20]): 19.26%
Activity (K562 [21]): 36.76%
Activity [22]: Non-Toxic
Activity (K562 [23]): 35.31%
Activity (K562 [24]): 30.83%
Activity (K562 [25]): 26.72%
IC50 [26]: 840 nM
Activity (H22 [27]): 78.92%
Activity (K562 [28]): Active
Activity (K562 [29]): Dde
